According to ChEMBL document CHEMBL1139913, “Synthesis, biological evaluations, and tubulin binding poses of C-2alpha sulfur linked taxol analogues” (Bioorg Med Chem Lett, 2007):

Key:
[1] = Cytotoxicity against A2780/AD cells by MTT assay; type: functional, cell-based; settings: Homo sapiens, A2780 ADR
A2780 = experiment: Cytotoxicity against A2780 cells by MTT assay; type: functional, cell-based; settings: Homo sapiens

**Q.** For `CC(=O)O[C@H]1C(=O)[C@@]2(C)[C@H]([C@H](SCc3ccccc3)[C@]3(O)C[C@H](OC(=O)[C@H](O)[C@@H](NC(=O)OC(C)(C)C)c4ccccc4)C(C)=C1C3(C)C)[C@]1(OC(C)=O)CO[C@@H]1C[C@@H]2O`, which IC50 [1] is on record?
**A.** The IC50 was 8.3 µM.

**Q.** What about the IC50 (A2780) of the same molecule?
**A.** The IC50 was 3.5 µM.

**Q.** For `CC(=O)O[C@H]1C(=O)[C@@]2(C)[C@H]([C@H](SC(=O)c3ccccc3)[C@]3(O)C[C@H](OC(=O)[C@H](O)[C@@H](NC(=O)c4ccccc4)c4ccccc4)C(C)=C1C3(C)C)[C@]1(OC(C)=O)CO[C@@H]1C[C@@H]2O`, which IC50 [1] is on record?
**A.** The IC50 was 27 µM.

**Q.** And the IC50 (A2780)?
**A.** The IC50 was 11.7 µM.

**Q.** With `CC(=O)O[C@H]1C(=O)[C@@]2(C)[C@H]([C@H](SC(=O)c3ccccc3)[C@]3(O)C[C@H](OC(=O)[C@H](O)[C@@H](NC(=O)OC(C)(C)C)c4ccccc4)C(C)=C1C3(C)C)[C@]1(OC(C)=O)CO[C@@H]1C[C@@H]2O` as the molecule, how does the IC50 [1] read?
**A.** The IC50 was 6.96 µM.

**Q.** And the IC50 (A2780)?
**A.** Its IC50 is 2.4 µM.

**Q.** Which IC50 [1] does the source give for `CC(=O)O[C@H]1C(=O)[C@@]2(C)[C@H]([C@H](OC(=O)c3ccccc3)[C@]3(O)C[C@H](OC(=O)[C@H](O)[C@@H](NC(=O)c4ccccc4)c4ccccc4)C(C)=C1C3(C)C)[C@]1(OC(C)=O)CO[C@@H]1C[C@@H]2O` [PACLITAXEL] here?
**A.** The IC50 was 0.92 µM.

**Q.** And the IC50 (A2780)?
**A.** Its IC50 is 0.0016 µM.

**Q.** Which results are given for `CC(=O)O[C@H]1C(=O)[C@@]2(C)[C@H]([C@H](SCc3ccccc3)[C@]3(O)C[C@H](OC(=O)[C@H](O)[C@@H](NC(=O)c4ccccc4)c4ccccc4)C(C)=C1C3(C)C)[C@]1(OC(C)=O)CO[C@@H]1C[C@@H]2O`?
**A.** IC50 [1]: 9.4 µM; IC50 (A2780): 9.9 µM
